According to patent US9211284B2, “Diagnosis and treatment of P.R.I.C.E. syndrome” (priority 2013, dated 2015):
Entries after “also recorded” stand apart in the source; their conditions may differ.

Assays:
[1] = tested on: patient having P.R.I.C.E. Syndrome; experiment: Example 1: case report of a patient with P.R.I.C.E. Syndrome, earlier medications then KAPVAY (plus inositol)
Text: The patient was tried on many psychostimulant medications, which are the gold standard for treatment of ADHD. Medications in this class include: Adderall/XR, Focalin/XR, Dexedrine, Vyvanse, Ritalin/LA/ER, Metadate ER/CD, Concerta and Daytrana.
By convention, psychiatrists refer to this phenomenon as Bipolar III or hypomania induced by medication which predicts and unmasks the development of spontaneous mood swings of genuine Bipolar to come for the patient later in life.
Nevertheless, the psychiatrist tried a series of atypical antipsychotics, including Zyprexa, Geodon, Seroquel as well as two FDA approved drugs for treatment of irritability in Autistic Disorder, Abilify and Risperdal.
The Applicant tapered and discontinued the aforementioned medications in the patient. The Applicant then titrated up KAPVAY® as follows: 0.1 mg at bedtime for a week; next, 0.1 mg twice a day for a week; next, 0.1 mg in the morning and 0.2 mg at night for one week; and finally 0.2 mg twice a day going forward.

[2] = tested on: patient having P.R.I.C.E. Syndrome; experiment: Example 2: case report of a patient with P.R.I.C.E. Syndrome, earlier medications then INTUNIV (plus inositol); assay type: in vivo, human; details: Example 2 patient; for effect on the patient's symptoms (particularism, concentration) / side effects: medications given before the P.R.I.C.E. diagnosis
Experimental: They had been taking Zoloft and Abilify, as well as Melatonin to help them sleep.
The Applicant tapered and discontinued the patient's then-current medications. The Applicant then titrated up INTUNIV® 1 mg at bedtime, increasing by an additional 1 mg at bedtime every week as necessary to achieve symptom control, up to a maximum of 4 mg.

[3] = tested on: patients having P.R.I.C.E. Syndrome; experiment: Applicant's general clinical findings in patients who meet all criteria for P.R.I.C.E. Syndrome; assay type: in vivo, human; details: patients meeting all P.R.I.C.E. criteria, Applicant's practice
Text: Both KAPVAY® and INTUNIV® are FDA-approved for treatment of ADHD. […] A psychiatrist would be led away from prescribing KAPVAY® or INTUNIV® to patients with suspected Bipolar Disorder since it is known that alpha-2 adrenergic agonists could potentially exacerbate emotional lability found in such patients.
Extended release clonidine is capable of stable therapeutic effects by maintaining a constant serum level for an extended period in order to avoid the “peak and trough” side effects of transient sedation at peak serum levels and rebound exacerbation of symptoms at trough levels. Embodiments of extended release compositions of clonidine are described in U.S. Pat. No. 5,869,100, which is incorporated herein by reference in its entirety.

[4] = tested on: patients with Bipolar Disorder; details: post-marketing reports; cited from earlier work
[5] = cited from earlier work
[6] = Example 1 patient, medications tried before the P.R.I.C.E. diagnosis

| Compound | side effects ([1]; human, in vivo) | effect on the patient's symptoms (agitation, impulsivity, concentration, rigidity) [1, 6] | further results |
| --- | --- | --- | --- |
| O=C1CCc2ccc(OCCCCN3CCN(c4cccc(Cl)c4Cl)CC3)cc2N1 [Abilify] | severe sedation, impaired their concentration further and caused an increase in both appetite and weight | – | effect on the patient's symptoms (particularism, concentration) [2]: without improvement in concentration; side effects [2]: sedation and tremor |
| COC(=O)C(c1ccccc1)C1CCCCN1 (stereo not shown) [Daytrana] | – | worsen their agitation without helping their concentration | – |
| CCCC(CCC)C(=O)O [Depakote] | – | ineffective; also recorded: not helping their agitation | – |
| O=C1Cc2cc(CCN3CCN(c4nsc5ccccc45)CC3)c(Cl)cc2N1 [Geodon] | severe sedation, impaired their concentration further and caused an increase in both appetite and weight | – | – |
| O[C@H]1[C@H](O)[C@@H](O)[C@H](O)[C@@H](O)[C@H]1O [Inositol, inositol] | – | – | effectiveness in treating P.R.I.C.E. Syndrome [3]: effective in addressing residual particularism; effect on "getting stuck" on certain topics in conversation ([2]; Inositol 9000 mg twice a day added to INTUNIV): therapeutically beneficial |
| Nc1nnc(-c2cccc(Cl)c2Cl)c(N)n1 [Lamictal] | – | ineffective; also recorded: not helping their agitation | – |
| CN(C)CCC[C@@]1(c2ccc(F)cc2)OCc2cc(C#N)ccc21 [Lexapro] | – | worsening their agitation without helping their rigidity | – |
| [Li] [Lithium] | – | – | side effects [1, 6]: worsening the patient's concentration |
| NC(=O)C[S@@+]([O-])C(c1ccccc1)c1ccccc1 [Nuvigil] | – | increased agitation and impulsivity | – |
| NC(=O)C[S+]([O-])C(c1ccccc1)c1ccccc1 (stereo not shown) [Provigil] | – | increased agitation and impulsivity | – |
| CNCCC(Oc1ccc(C(F)(F)F)cc1)c1ccccc1 (stereo not shown) [Prozac] | – | – | effect on the patient's symptoms (particularism, concentration) [2]: did not alleviate the particularism; side effects [2]: become “wild” and unable to sleep |
| Cc1nc2n(c(=O)c1CCN1CCC(c3noc4cc(F)ccc34)CC1)CCCC2 [Risperdal] | severe sedation, impaired their concentration further and caused an increase in both appetite and weight | – | side effects [2]: sedation and weight gain |
| OCCOCCN1CCN(C2=Nc3ccccc3Sc3ccccc32)CC1 [Seroquel] | severe sedation, impaired their concentration further and caused an increase in both appetite and weight | – | – |
| CNCC[C@@H](Oc1ccccc1C)c1ccccc1 [Strattera] | – | increased agitation and impulsivity | – |
| NC(=O)N1c2ccccc2C=Cc2ccccc21 [Tegretol] | worsening the patient's concentration | ineffective | – |
| N=C(N)NC(=O)Cc1c(Cl)cccc1Cl [Tenex, N-(Aminoiminomethyl)-2,6-dichlorobenzeneacetamide; N-amidino-2-(2,6 dichlorophenyl) acetamide] | – | not effective | side effects [1, 6]: too sedative; manic symptoms in Bipolar Disorder [4]: development or exacerbation of manic symptoms |
| CC1(C)O[C@@H]2[C@@H](CO[C@@]3(COS(N)(=O)=O)OC(C)(C)O[C@@H]23)O1 [Topamax] | worsening the patient's concentration | ineffective | – |
| NC(=O)N1c2ccccc2CC(=O)c2ccccc21 [Trileptal] | worsening the patient's concentration | ineffective | – |
| CC(NC(C)(C)C)C(=O)c1cccc(Cl)c1 (stereo not shown) [Wellbutrin] | – | increased agitation and impulsivity | – |
| CN[C@H]1CC[C@@H](c2ccc(Cl)c(Cl)c2)c2ccccc21 [Zoloft] | – | – | effect on the patient's symptoms (particularism, concentration) [2]: did not alleviate the particularism; side effects [2]: become “wild” and unable to sleep |
| Cc1cc2c(s1)Nc1ccccc1N=C2N1CCN(C)CC1 [Zyprexa] | severe sedation, impaired their concentration further and caused an increase in both appetite and weight | – | – |
| CC(C)NCC(O)COc1cccc2ccccc12 (stereo not shown) [propranolol] | too sedative | not effective | – |
| Clc1cccc(Cl)c1N=C1NCCN1 [short-acting clonidine, 2,6-dichloro-N-2-imidazolidinylidene benzeneamine] | too sedative | not effective | effectiveness in treating P.R.I.C.E. Syndrome [3]: ineffective; biological half-life ([5]; after oral administration of short-acting clonidine): four to six; primary side-effect ([5]; short-acting clonidine, about an hour after the given dose): sedation; absorption from the gastrointestinal tract ([5]; short-acting oral formulation): almost completely absorbed |
